Measured values as given in patent US20240262819A1, “NOVEL COMPOUNDS HAVING INHIBITORY ACTIVITY AGAINST GLUCOSYLCERAMIDE SYNTHASE OR PHARMACEUTICALLY ACCEPTABLE SALT THEREOF, PROCESSES FOR PREPARING THE SAME, AND PHARMACEUTICAL COMPOSITIONS COMPRISING THE SAME” (YUHAN CORPORATION, priority 2021, published 2024).
Read-outs that look alike come from different tables or passages of the source.

Legend:
[1] = test system: GM1 production in Jurkat cells; test: cells; assay type: cell-based
[2] = biological target: glucosylceramide synthase (GCS) (Homo sapiens (Human), UniProt Q16739); test: Evaluation of inhibitory activities against GCS (A549 cell lysate, NBD C6-ceramide, HPLC); assay type: biochemical
glucosylceramide synthase (GCS), sequence (Q16739 whole entry): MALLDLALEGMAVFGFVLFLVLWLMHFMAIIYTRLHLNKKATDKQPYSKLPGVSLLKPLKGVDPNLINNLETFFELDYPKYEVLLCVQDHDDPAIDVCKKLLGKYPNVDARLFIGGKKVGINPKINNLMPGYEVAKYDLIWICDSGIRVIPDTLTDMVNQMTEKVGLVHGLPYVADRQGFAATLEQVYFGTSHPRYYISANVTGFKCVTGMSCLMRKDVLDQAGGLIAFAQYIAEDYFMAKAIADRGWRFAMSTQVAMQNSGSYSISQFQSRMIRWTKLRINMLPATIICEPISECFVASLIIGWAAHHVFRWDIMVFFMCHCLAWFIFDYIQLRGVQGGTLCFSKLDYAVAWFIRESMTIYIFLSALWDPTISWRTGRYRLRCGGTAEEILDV
Procedure: The inhibitory activities of the compounds of the present invention against GCS were evaluated, as follows, according to the method described in the known literature (Hayashi Y et al., A sensitive and reproducible assay to measure the activity of glucosylceramide synthase and lactosylceramide synthase using HPLC and fluorescent substrates, Analytical Biochemistry 345 (2005) 181-186). Ibiglustat, known as a GCS inhibitor, was used as a control.
After the cells attached to the culture dish were washed with phosphate buffered saline (PBS), the cells were scraped off with a cell scraper and then centrifuged (4000 rpm, 3 min, 4 °C) to collect the cells in a 50 ml tube. The cell pellets were suspended in a lysis buffer (50 mM HEPES, pH 7.3, containing 1× the protease/phosphatase inhibitor cocktail), lysed by sonication, and then the lysate was centrifuged (13000 rpm, 10 min, 4° C.). The obtained supernatant was used for the quantitative analysis of proteins. The amount of proteins was measured using the BCA protein assay kit, using bovine serum albumin as a standard.
Enzymatic reactions were initiated by sequentially adding the following reaction materials to a 96 deep-well plate. Thereafter, the enzymatic reactions were performed at 37° C. for 90 minutes.
The enzymatic reactions were stopped by adding 100 μl of chloroform/methanol (2:1, v/v). […] The lower layer (50 μl) was transferred to a new 96 deep-well plate and dried with a reduced concentrator.
Lipids were dissolved in 100 μl of isopropyl alcohol/n-hexane/H2O (55:44:1, v/v/v) and then transferred to a glass vial for HPLC (Agilent, 8004-HP-H/i3u). The sample (100 μl) was automatically loaded onto a normal-phase column (Intersil SIL 150A-5, 4.6×250 mm, GL Sciences, Japan) and then eluted at a flow rate of 2.0 ml/min with isopropyl alcohol/n-hexane/H2O (55:44:1, v/v/v). The fluorescence thereof was measured with a fluorescence detector (Agilent, 1260 FLD Spectra), using 470 nm and 530 nm as excitation and emission wavelengths, respectively.
Data analysis was performed by the following equations.
% Area (Sample)=Area (GlcCer)/[Area (Cer)+Area (GlcCer)]×100%
GCS activity=[Area (Sample)−Area (ibiglustat)]/[Area (DMSO)−Area (ibiglustat)]×100
The obtained % GCS activity data was analyzed with the software GraphPad Prism (Ver 5.01) to calculate the IC50 values.

[3] = % GCS activity, A549 cell lysate, 37° C. for 90 minutes, read-out: IC50

Structure (SMILES)	IC50 ([1]; Homo sapiens, Jurkat, 72 h) [nM]	IC50 [2] [nM]	IC50 ([1]; read-out: IC50) [nM]	IC50 [2, 3] [nM]
CCCCc1ccc(-c2cc3c(cc2C)[C@H](NC(=O)O[C@@H]2CN4CCC2CC4)C(C)(C)C3)cc1 [Example 118, (S)-quinuclidin-3-yl((R)-5-(4-butylphenyl)-2,2,6-trimethyl-2,3-dihydro-1H-inden-1-yl)carbamate]	1.55	0.2	–	–
Cc1cc2c(cc1-c1ccc(CC(C)C)cc1)CC(C)(C)[C@H]2NC(=O)O[C@@H]1CN2CCC1CC2 [Example 119, (S)-quinuclidin-3-yl((R)-5-(4-isobutylphenyl)-2,2,6-trimethyl-2,3-dihydro-1H-inden-1-yl)carbamate]	4.95	0.23	–	–
CCOc1ccc(-c2cc3c(cc2C)[C@H](NC(=O)O[C@@H]2CN4CCC2CC4)C(C)(C)C3)cc1 [Example 120, (S)-quinuclidin-3-yl((R)-5-(4-ethoxyphenyl)-2,2,6-trimethyl-2,3-dihydro-1H-inden-1-yl)carbamate]	7.66	0.31	–	–
CCCOc1ccc(-c2cc3c(cc2C)[C@H](NC(=O)O[C@@H]2CN4CCC2CC4)C(C)(C)C3)cc1 [Example 121, (S)-quinuclidin-3-yl((R)-2,2,6-trimethyl-5-(4-propoxyphenyl)-2,3-dihydro-1H-inden-1-yl)carbamate]	2.79	0.28	–	–
Cc1cc2c(cc1-c1ccc(OC(C)C)cc1)CC(C)(C)[C@H]2NC(=O)O[C@@H]1CN2CCC1CC2 [Example 122, (S)-quinuclidin-3-yl((R)-5-(4-isopropoxyphenyl)-2,2,6-trimethyl-2,3-dihydro-1H-inden-1-yl)carbamate]	3.66	0.34	–	–
CCCCOc1ccc(-c2cc3c(cc2C)[C@H](NC(=O)O[C@@H]2CN4CCC2CC4)C(C)(C)C3)cc1 [Example 123, (S)-quinuclidin-3-yl((R)-5-(4-butoxyphenyl)-2,2,6-trimethyl-2,3-dihydro-1H-inden-1-yl)carbamate]	1.26	0.24	–	–
Cc1cc2c(cc1-c1ccc(OCC(C)C)cc1)CC(C)(C)[C@H]2NC(=O)O[C@@H]1CN2CCC1CC2 [Example 124, (S)-quinuclidin-3-yl((R)-5-(4-isobutoxyphenyl)-2,2,6-trimethyl-2,3-dihydro-1H-inden-1-yl)carbamate]	1.13	0.2	–	–
Cc1cc2c(cc1-c1ccc(OC(C)C)c(Cl)c1)CC(C)(C)[C@H]2NC(=O)O[C@@H]1CN2CCC1CC2 [Example 125, (S)-quinuclidin-3-yl((R)-5-(3-chloro-4-isopropoxyphenyl)-2,2,6-trimethyl-2,3-dihydro-1H-inden-1-yl)carbamate]	10.8	2.17	–	–
COc1ccc(-c2cc3c(cc2C)[C@H](NC(=O)O[C@@H]2CN4CCC2CC4)C(C)(C)C3)c(F)c1 [Example 126, (S)-quinuclidin-3-yl((R)-5-(2-fluoro-4-methoxyphenyl)-2,2,6-trimethyl-2,3-dihydro-1H-inden-1-yl)carbamate]	18	1.48	–	–
CCOc1cc2c(cc1-c1ccc(CC)cc1)CC(C)(C)[C@H]2NC(=O)O[C@@H]1CN2CCC1CC2 [Example 127, (S)-quinuclidin-3-yl((R)-6-ethoxy-5-(4-ethylphenyl)-2,2-dimethyl-2,3-dihydro-1H-inden-1-yl)carbamate]	8.02	1.82	–	–
CCCc1ccc(-c2cc3c(cc2OCC)[C@H](NC(=O)O[C@@H]2CN4CCC2CC4)C(C)(C)C3)cc1 [Example 128, (S)-quinuclidin-3-yl((R)-6-ethoxy-2,2-dimethyl-5-(4-propylphenyl)-2,3-dihydro-1H-inden-1-yl)carbamate]	6.49	1.8	–	–
CCOc1cc2c(cc1-c1ccc(C(C)C)cc1)CC(C)(C)[C@H]2NC(=O)O[C@@H]1CN2CCC1CC2 [Example 129, (S)-quinuclidin-3-yl((R)-6-ethoxy-5-(4-isopropylphenyl)-2,2-dimethyl-2,3-dihydro-1H-inden-1-yl)carbamate]	8.11	2.31	–	–
CCCCc1ccc(-c2cc3c(cc2OCC)[C@H](NC(=O)O[C@@H]2CN4CCC2CC4)C(C)(C)C3)cc1 [Example 130, (S)-quinuclidin-3-yl((R)-5-(4-butylphenyl)-6-ethoxy-2,2-dimethyl-2,3-dihydro-1H-inden-1-yl)carbamate]	1.53	0.75	–	–
CCOc1cc2c(cc1-c1ccc(CC(C)C)cc1)CC(C)(C)[C@H]2NC(=O)O[C@@H]1CN2CCC1CC2 [Example 131, (S)-quinuclidin-3-yl((R)-6-ethoxy-5-(4-isobutylphenyl)-2,2-dimethyl-2,3-dihydro-1H-inden-1-yl)carbamate]	6.47	2.01	–	–
CCOc1ccc(-c2cc3c(cc2OCC)[C@H](NC(=O)O[C@@H]2CN4CCC2CC4)C(C)(C)C3)cc1 [Example 132, (S)-quinuclidin-3-yl((R)-6-ethoxy-5-(4-ethoxyphenyl)-2,2-dimethyl-2,3-dihydro-1H-inden-1-yl)carbamate]	7.62	1.6	–	–
CCCOc1ccc(-c2cc3c(cc2OCC)[C@H](NC(=O)O[C@@H]2CN4CCC2CC4)C(C)(C)C3)cc1 [Example 133, (S)-quinuclidin-3-yl((R)-6-ethoxy-2,2-dimethyl-5-(4-propoxyphenyl)-2,3-dihydro-1H-inden-1-yl) carbamate]	–	–	2.63	0.5
CCOc1cc2c(cc1-c1ccc(OC(C)C)cc1)CC(C)(C)[C@H]2NC(=O)O[C@@H]1CN2CCC1CC2 [Example 134, (S)-quinuclidin-3-yl((R)-6-ethoxy-5-(4-isopropoxyphenyl)-2,2-dimethyl-2,3-dihydro-1H-inden-1-yl)carbamate]	3.8	0.71	–	–
CCCCOc1ccc(-c2cc3c(cc2OCC)[C@H](NC(=O)O[C@@H]2CN4CCC2CC4)C(C)(C)C3)cc1 [Example 135, (S)-quinuclidin-3-yl((R)-5-(4-butoxyphenyl)-6-ethoxy-2,2-dimethyl-2,3-dihydro-1H-inden-1-yl)carbamate]	1.46	0.51	–	–
CCOc1cc2c(cc1-c1ccc(OCC(C)C)cc1)CC(C)(C)[C@H]2NC(=O)O[C@@H]1CN2CCC1CC2 [Example 136, (S)-quinuclidin-3-yl((R)-6-ethoxy-5-(4-isobutoxyphenyl)-2,2-dimethyl-2,3-dihydro-1H-inden-1-yl)carbamate]	0.87	0.41	–	–
CCOc1cc2c(cc1-c1ccc(OC(C)C)c(Cl)c1)CC(C)(C)[C@H]2NC(=O)O[C@@H]1CN2CCC1CC2 [Example 137, (S)-quinuclidin-3-yl((R)-5-(3-chloro-4-isopropoxyphenyl)-6-ethoxy-2,2-dimethyl-2,3-dihydro-1H-inden-1-yl)carbamate]	12.8	3.04	–	–
CCOc1cc2c(cc1-c1ccc(OC)cc1F)CC(C)(C)[C@H]2NC(=O)O[C@@H]1CN2CCC1CC2 [Example 138, (S)-quinuclidin-3-yl((R)-6-ethoxy-5-(2-fluoro-4-methoxyphenyl)-2,2-dimethyl-2,3-dihydro-1H-inden-1-yl)carbamate]	28	1.87	–	–
CCc1ccc(-c2ccc3c(c2)CCC(C)(C)[C@H]3NC(=O)O[C@@H]2CN3CCC2CC3)cc1 [Example 139, (S)-quinuclidin-3-yl((R)-6-(4-ethylphenyl)-2,2-dimethyl-1,2,3,4-tetrahydronaphthalen-1-yl)carbamate]	3.01	0.26	–	–
CCCc1ccc(-c2ccc3c(c2)CCC(C)(C)[C@H]3NC(=O)O[C@@H]2CN3CCC2CC3)cc1 [Example 140, (S)-quinuclidin-3-yl((R)-2,2-dimethyl-6-(4-propylphenyl)-1,2,3,4-tetrahydronaphthalen-1-yl)carbamate]	2.5	0.29	–	–
CC(C)c1ccc(-c2ccc3c(c2)CCC(C)(C)[C@H]3NC(=O)O[C@@H]2CN3CCC2CC3)cc1 [Example 141, (S)-quinuclidin-3-yl((R)-6-(4-isopropylphenyl)-2,2-dimethyl-1,2,3,4-tetrahydronaphthalen-1-yl)carbamate]	2.77	0.43	–	–
CCCCc1ccc(-c2ccc3c(c2)CCC(C)(C)[C@H]3NC(=O)O[C@@H]2CN3CCC2CC3)cc1 [Example 142, (S)-quinuclidin-3-yl((R)-6-(4-butylphenyl)-2,2-dimethyl-1,2,3,4-tetrahydronaphthalen-1-yl) carbamate]	–	–	1.4	0.23
CCOc1ccc(-c2ccc3c(c2)CCC(C)(C)[C@H]3NC(=O)O[C@@H]2CN3CCC2CC3)cc1 [Example 143, (S)-quinuclidin-3-yl((R)-6-(4-ethoxyphenyl)-2,2-dimethyl-1,2,3,4-tetrahydronaphthalen-1-yl) carbamate]	–	–	4.2	0.33
